Data as given in patent publication US20150005281A1, “PYRIMIDINE-2,4-DIAMINE DERIVATIVES AS KINASE INHIBITORS” (Cellzome Limited, priority 2011, published 2015).

Experiments:
Type in all cases: binding
[1] = target: T1, JAK1 (Homo sapiens, UniProt P23458); test: Kinobeads assay with immunodetection, JAK1; conditions: for IC50: Kinobeads assay, mixed Molt4/Ramos lysate, read-out: Inhibition values (IC50) JAK1
T1 construct: endogenous in cells; host or cells: Molt4 (ATCC CRL-1582) and Ramos (ATCC CRL-1596) cells; mixed lysate 1:2
In short: (§1)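 Steps: compound serially diluted 1:3 in DMSO; added with kinobeads to mixed Molt4/Ramos lysate; 3 h cold incubation; wash; SDS elution; antibody dot blot quantitation of each kinase; IC50 fitting.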

[2] = target: T2, JAK2 (Homo sapiens, UniProt O60674); test: Kinobeads assay with immunodetection, JAK2; conditions: mixed Molt4/Ramos lysate, read-out: Inhibition values (IC50) JAK2
T2 construct: endogenous in cells; host or cells: Molt4 (ATCC CRL-1582) and Ramos (ATCC CRL-1596) cells; mixed lysate 1:2
In short: as §1

[3] = target: T3, JAK3 (Homo sapiens, UniProt P52333); test: Kinobeads assay with immunodetection, JAK3; conditions: for IC50: Kinobeads assay, mixed Molt4/Ramos lysate, read-out: Inhibition values (IC50) JAK3
T3 construct: endogenous in cells; host or cells: Molt4 (ATCC CRL-1582) and Ramos (ATCC CRL-1596) cells; mixed lysate 1:2
T3 sequence (P52333 1-1124): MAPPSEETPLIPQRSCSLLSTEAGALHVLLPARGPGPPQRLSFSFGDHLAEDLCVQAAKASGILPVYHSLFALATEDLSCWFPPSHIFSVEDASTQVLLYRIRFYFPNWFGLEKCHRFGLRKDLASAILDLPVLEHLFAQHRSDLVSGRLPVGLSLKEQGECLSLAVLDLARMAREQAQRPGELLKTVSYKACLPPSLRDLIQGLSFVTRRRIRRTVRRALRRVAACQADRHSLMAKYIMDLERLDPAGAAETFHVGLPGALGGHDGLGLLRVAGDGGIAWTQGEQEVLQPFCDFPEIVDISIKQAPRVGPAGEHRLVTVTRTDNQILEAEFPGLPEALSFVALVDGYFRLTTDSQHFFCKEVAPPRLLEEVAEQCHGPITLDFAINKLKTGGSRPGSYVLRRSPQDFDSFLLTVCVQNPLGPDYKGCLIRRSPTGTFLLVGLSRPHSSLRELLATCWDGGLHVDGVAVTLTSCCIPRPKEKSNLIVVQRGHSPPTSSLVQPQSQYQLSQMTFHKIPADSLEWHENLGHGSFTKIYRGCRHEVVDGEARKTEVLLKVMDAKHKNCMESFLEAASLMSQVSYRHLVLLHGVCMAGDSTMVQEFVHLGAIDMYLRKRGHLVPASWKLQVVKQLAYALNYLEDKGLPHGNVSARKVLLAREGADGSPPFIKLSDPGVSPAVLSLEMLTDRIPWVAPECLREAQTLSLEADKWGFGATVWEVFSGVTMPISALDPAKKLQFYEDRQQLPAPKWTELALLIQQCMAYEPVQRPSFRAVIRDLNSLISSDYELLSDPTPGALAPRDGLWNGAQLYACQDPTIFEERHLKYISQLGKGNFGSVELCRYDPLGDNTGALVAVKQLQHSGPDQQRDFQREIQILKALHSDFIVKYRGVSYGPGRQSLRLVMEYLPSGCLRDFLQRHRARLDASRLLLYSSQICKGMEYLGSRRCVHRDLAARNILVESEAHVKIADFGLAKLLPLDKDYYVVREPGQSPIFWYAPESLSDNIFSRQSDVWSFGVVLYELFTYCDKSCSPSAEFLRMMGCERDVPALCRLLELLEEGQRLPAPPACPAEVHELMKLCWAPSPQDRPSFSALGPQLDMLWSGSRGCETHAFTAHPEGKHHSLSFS
In short: as §1

[4] = target: T4, TYK2 (Homo sapiens, UniProt P29597); test: Kinobeads assay with immunodetection, TYK2; conditions: for IC50: Kinobeads assay, mixed Molt4/Ramos lysate, read-out: Inhibition values (IC50) Tyk2
T4 construct: endogenous in cells; host or cells: Molt4 (ATCC CRL-1582) and Ramos (ATCC CRL-1596) cells; mixed lysate 1:2
In short: as §1

T2 sequence (O60674 whole entry): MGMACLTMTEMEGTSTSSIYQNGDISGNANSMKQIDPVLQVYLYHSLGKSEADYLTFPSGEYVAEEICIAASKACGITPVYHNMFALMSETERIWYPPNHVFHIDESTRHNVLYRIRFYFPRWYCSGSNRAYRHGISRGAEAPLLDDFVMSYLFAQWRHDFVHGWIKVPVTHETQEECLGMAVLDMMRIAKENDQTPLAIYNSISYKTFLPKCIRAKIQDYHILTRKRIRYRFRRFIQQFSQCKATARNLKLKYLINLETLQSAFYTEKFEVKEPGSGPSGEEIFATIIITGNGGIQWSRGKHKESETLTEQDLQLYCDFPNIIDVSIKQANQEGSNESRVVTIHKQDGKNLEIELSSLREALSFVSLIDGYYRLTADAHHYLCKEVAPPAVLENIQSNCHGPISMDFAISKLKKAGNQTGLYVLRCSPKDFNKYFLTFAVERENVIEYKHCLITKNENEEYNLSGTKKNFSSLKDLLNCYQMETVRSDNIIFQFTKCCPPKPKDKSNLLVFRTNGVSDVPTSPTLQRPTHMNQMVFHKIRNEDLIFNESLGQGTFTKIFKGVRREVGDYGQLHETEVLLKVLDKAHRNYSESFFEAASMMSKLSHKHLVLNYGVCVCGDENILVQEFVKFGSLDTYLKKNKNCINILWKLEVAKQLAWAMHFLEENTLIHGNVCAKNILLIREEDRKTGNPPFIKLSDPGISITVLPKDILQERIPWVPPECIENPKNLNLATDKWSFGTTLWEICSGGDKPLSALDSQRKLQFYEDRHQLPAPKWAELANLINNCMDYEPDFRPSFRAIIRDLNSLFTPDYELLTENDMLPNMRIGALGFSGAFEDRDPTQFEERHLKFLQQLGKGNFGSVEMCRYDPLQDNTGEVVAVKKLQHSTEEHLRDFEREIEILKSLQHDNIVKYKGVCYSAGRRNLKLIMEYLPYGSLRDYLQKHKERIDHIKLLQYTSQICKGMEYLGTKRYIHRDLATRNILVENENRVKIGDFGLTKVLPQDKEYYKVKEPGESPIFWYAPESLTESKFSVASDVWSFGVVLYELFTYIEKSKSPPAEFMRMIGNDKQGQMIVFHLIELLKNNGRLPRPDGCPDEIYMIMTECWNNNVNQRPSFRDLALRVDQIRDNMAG
T1 sequence (P23458 whole entry): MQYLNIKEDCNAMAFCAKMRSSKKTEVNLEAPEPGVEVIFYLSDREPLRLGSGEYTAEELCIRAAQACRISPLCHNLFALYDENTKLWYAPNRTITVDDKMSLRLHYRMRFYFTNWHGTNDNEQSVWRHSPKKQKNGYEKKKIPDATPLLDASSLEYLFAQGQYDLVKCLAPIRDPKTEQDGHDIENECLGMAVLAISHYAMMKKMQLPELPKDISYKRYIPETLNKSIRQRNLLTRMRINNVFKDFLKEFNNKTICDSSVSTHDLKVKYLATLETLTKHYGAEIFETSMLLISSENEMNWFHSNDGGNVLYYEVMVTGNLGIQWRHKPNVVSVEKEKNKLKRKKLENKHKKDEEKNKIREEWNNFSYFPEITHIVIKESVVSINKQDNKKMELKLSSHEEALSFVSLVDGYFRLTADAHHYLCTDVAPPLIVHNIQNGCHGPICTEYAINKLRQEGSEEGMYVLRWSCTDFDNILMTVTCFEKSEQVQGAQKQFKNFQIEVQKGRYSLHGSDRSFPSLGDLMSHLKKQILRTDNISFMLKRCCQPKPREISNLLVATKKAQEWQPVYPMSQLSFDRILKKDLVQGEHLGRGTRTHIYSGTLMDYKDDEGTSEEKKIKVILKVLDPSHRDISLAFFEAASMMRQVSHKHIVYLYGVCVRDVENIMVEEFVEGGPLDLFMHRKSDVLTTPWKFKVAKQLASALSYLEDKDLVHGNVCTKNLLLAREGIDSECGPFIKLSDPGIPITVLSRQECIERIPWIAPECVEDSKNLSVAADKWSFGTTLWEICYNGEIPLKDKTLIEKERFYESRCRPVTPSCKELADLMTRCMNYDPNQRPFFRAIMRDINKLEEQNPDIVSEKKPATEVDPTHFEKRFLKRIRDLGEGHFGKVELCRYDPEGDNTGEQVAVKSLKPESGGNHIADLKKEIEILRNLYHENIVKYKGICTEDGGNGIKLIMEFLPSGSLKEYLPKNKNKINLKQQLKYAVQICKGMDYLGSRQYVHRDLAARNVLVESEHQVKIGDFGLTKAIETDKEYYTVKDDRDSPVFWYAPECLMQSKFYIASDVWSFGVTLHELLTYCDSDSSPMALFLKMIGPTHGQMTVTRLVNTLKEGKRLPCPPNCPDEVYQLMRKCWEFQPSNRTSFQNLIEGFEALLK
T4 sequence (P29597 whole entry): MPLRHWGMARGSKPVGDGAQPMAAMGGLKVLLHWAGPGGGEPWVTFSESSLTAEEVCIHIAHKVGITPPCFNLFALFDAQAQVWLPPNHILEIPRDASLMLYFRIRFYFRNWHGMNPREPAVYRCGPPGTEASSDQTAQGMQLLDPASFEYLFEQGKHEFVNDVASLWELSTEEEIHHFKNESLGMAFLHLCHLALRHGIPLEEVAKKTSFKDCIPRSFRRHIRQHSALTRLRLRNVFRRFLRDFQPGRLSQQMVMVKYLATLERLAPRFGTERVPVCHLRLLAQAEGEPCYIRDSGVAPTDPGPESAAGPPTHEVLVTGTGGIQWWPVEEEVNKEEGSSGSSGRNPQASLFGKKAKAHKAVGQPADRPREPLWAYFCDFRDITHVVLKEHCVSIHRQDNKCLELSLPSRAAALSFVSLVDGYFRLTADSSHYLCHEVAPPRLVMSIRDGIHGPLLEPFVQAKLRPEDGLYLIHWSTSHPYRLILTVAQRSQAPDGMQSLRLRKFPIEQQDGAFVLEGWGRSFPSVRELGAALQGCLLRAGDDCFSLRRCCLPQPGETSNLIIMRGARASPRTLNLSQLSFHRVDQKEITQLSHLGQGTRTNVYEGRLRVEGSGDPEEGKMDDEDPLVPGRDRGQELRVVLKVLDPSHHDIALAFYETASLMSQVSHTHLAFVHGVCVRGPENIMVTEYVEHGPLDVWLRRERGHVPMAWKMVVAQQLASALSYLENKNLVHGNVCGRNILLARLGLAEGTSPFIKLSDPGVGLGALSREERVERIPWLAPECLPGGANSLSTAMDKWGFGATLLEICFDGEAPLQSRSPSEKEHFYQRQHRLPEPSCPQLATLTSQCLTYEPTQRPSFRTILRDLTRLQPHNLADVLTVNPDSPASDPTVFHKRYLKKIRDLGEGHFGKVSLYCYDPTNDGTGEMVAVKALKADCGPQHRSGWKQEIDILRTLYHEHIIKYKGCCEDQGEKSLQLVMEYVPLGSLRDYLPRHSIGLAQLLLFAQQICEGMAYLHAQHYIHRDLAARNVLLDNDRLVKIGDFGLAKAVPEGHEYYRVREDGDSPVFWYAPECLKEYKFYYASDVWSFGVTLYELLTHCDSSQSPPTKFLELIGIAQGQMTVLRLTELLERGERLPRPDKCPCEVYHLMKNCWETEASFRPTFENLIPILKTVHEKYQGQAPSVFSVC

IC50 [1]	IC50 [2]	IC50 [3]	IC50 [4]	Selectivity ratio over JAK2, Tyk2 [4]	Selectivity ratio over JAK2, JAK1 [1]	Selectivity ratio over JAK2, JAK3 [3]	Structure (SMILES)
100 to 1000 nM	1000 to 10000 nM	100 to 1000 nM	< 100 nM	Tyk2 = 50	–	–	Cl.Cn1cc(Nc2ncc(F)c(NC[C@H]3CCCN3S(C)(=O)=O)n2)cn1 [Example 74, (R)-5-fluoro-N^2-(1-methyl-1H-pyrazol-4-yl)-N^4-((1-(methylsulfonyl)pyrrolidin-2-yl)methyl)pyrimidine-2,4-diamine Hydrochloride]
100 to 1000 nM	1000 to 10000 nM	1000 to 10000 nM	1000 to 10000 nM	–	JAK1 = 46	–	Cn1cc(Nc2ncc(Cl)c(NC[C@H]3CCN(CCO)C3)n2)cn1 [Example 56, (R)-2-(3-((5-chloro-2-(1-methyl-1H-pyrazol-4-ylamino)pyrimidin-4-ylamino)methyl)pyrrolidin-1-yl)ethanol]
< 100 nM	100 to 1000 nM	100 to 1000 nM	< 100 nM	–	–	JAK3 = 46	Cn1cc(Nc2ncc(Cl)c(NC[C@H]3CCCN3CCNS(C)(=O)=O)n2)cn1 [Example 126, (R)—N-(2-(2-(((5-chloro-2-((1-methyl-1H-pyrazol-4-yl)amino)pyrimidin-4-yl)amino)methyl)pyrrolidin-1-yl)ethyl)methanesulfonamide]
100 to 1000 nM	1000 to 10000 nM	1000 to 10000 nM	100 to 1000 nM	–	JAK1 = 33	–	CN(C)CC(=O)N1CC[C@H](CNc2nc(Nc3cnn(C)c3)ncc2Cl)C1 [Example 59, (R)-1-(3-((5-chloro-2-(1-methyl-1H-pyrazol-4-ylamino)pyrimidin-4-ylamino)methyl)pyrrolidin-1-yl)-2-(dimethylamino)ethanone]
< 100 nM	100 to 1000 nM	< 100 nM	< 100 nM	–	JAK1 = 6	–	CC(=O)N1CCC[C@@H]1CNc1nc(Nc2cnn(CCO)c2)ncc1Cl [Example 2, (R)-1-(2-(((5-chloro-2-((1-(2-hydroxyethyl)-1H-pyrazol-4-yl)amino)pyrimidin-4-yl)amino)methyl)pyrrolidin-1-yl)ethanone]
100 to 1000 nM	> 10000 nM	1000 to 10000 nM	1000 to 10000 nM	–	–	–	C=CC(=O)N1CCCC[C@H]1CNc1nc(Nc2cnn(CCO)c2)ncc1Cl [Example 35, (S)-1-(2-(((5-chloro-2-((1-(2-hydroxyethyl)-1H-pyrazol-4-yl)amino)pyrimidin-4-yl)amino)methyl)piperidin-1-yl)prop-2-en-1-one]
< 100 nM	100 to 1000 nM	< 100 nM	< 100 nM	–	JAK1 = 27	–	Cn1cc(Nc2ncc(Cl)c(NC[C@@H]3C[C@H](F)CN3CCS(C)(=O)=O)n2)cn1 [Example 91, 5-chloro-N^4-(((2S,4S)-4-fluoro-1-(2-(methylsulfonyl)ethyl)pyrrolidin-2-yl)methyl)-N^2-(1-methyl-1H-pyrazol-4-yl)pyrimidine-2,4-diamine]
< 100 nM	100 to 1000 nM	< 100 nM	< 100 nM	–	JAK1 = 13	–	C=CS(=O)(=O)N1CCC[C@H]1CNc1nc(Nc2cnn(CCO)c2)ncc1Cl [Example 15, (S)-2-(4-((5-chloro-4-(((1-(vinylsulfonyl)pyrrolidin-2-yl)methyl)amino)pyrimidin-2-yl)amino)-1H-pyrazol-1-yl)ethanol]
< 100 nM	< 100 nM	< 100 nM	< 100 nM	Tyk2 = 13	–	–	CNC(=O)Cn1cc(Nc2ncc(Cl)c(NC[C@H]3CCCN3S(C)(=O)=O)n2)cn1 [Example 67, (R)-2-(4-(5-chloro-4-((1-(methylsulfonyl)pyrrolidin-2-yl)methylamino)pyrimidin-2-ylamino)-1H-pyrazol-1-yl)-N-methylacetamide]
< 100 nM	1000 to 10000 nM	1000 to 10000 nM	100 to 1000 nM	–	JAK1 = 194	–	Cc1cnc(Nc2cnn(CC(F)F)c2)nc1NC[C@@H]1C[C@H](F)CN1C(=O)CCC#N [Example 122, 4-((2S,4S)-2-(((2-((1-(2,2-difluoroethyl)-1H-pyrazol-4-yl)amino)-5-methylpyrimidin-4-yl)amino)methyl)-4-fluoropyrrolidin-1-yl)-4-oxobutanenitrile]
100 to 1000 nM	1000 to 10000 nM	< 100 nM	100 to 1000 nM	–	–	JAK3 = 100	C=CS(=O)(=O)N1CCC[C@@H]1CNc1nc(Nc2cnn(C)c2)ncc1Cl [Example 7, (R)-5-chloro-N^2-(1-methyl-1H-pyrazol-4-yl)-N^4-((1-(vinylsulfonyl)pyrrolidin-2-yl)methyl)pyrimidine-2,4-diamine]
< 100 nM	100 to 1000 nM	< 100 nM	< 100 nM	–	JAK1 = 26	–	Cc1cnc(Nc2cnn(C)c2)nc1NC[C@H]1CCCN1S(C)(=O)=O [Example 76, (R)-5-methyl-N^2-(1-methyl-1H-pyrazol-4-yl)-N^4-((1-(methylsulfonyl)pyrrolidin-2-yl)methyl)pyrimidine-2,4-diamine]
100 to 1000 nM	1000 to 10000 nM	100 to 1000 nM	100 to 1000 nM	Tyk2 = 10	–	–	C=CC(=O)N1CCC[C@@H]1CNc1nc(Nc2cnn(C)c2)ncc1Cl [Example 3, (R)-1-(2-(((5-chloro-2-((1-methyl-1H-pyrazol-4-yl)amino)pyrimidin-4-yl)amino)methyl)pyrrolidin-1-yl)prop-2-en-1-one]
1000 to 10000 nM	> 10000 nM	1000 to 10000 nM	1000 to 10000 nM	–	–	–	CC(=O)N1CC(CNc2nc(Nc3cnn(CCO)c3)ncc2Cl)C1 [Example 17, 1-(3-(((5-chloro-2-((1-(2-hydroxyethyl)-1H-pyrazol-4-yl)amino)pyrimidin-4-yl)amino)methyl)azetidin-1-yl)ethanone]
100 to 1000 nM	1000 to 10000 nM	1000 to 10000 nM	100 to 1000 nM	–	JAK1 = 9	–	CC(=O)N1CC[C@@H](CNc2nc(Nc3cnn(C)c3)ncc2Cl)C1 [Example 26, (S)-1-(3-(((5-chloro-2-((1-methyl-1H-pyrazol-4-yl)amino)pyrimidin-4-yl)amino)methyl)pyrrolidin-1-yl)ethanone]
< 100 nM	1000 to 10000 nM	100 to 1000 nM	< 100 nM	Tyk2 = 103	–	–	Cn1cc(Nc2ncc(F)c(NC[C@H]3CCCN3C(=O)CCC#N)n2)cn1 [Example 114, (R)-4-(2-(((5-fluoro-2-((1-methyl-1H-pyrazol-4-yl)amino)pyrimidin-4-yl)amino)methyl)pyrrolidin-1-yl)-4-oxobutanenitrile]
< 100 nM	< 100 nM	100 to 1000 nM	< 100 nM	Tyk2 = 33	–	–	Cn1cc(Nc2ncc(Cl)c(NC[C@H]3CCCN3CCC(F)(F)F)n2)cn1 [Example 80, (R)-5-chloro-N^2-(1-methyl-1H-pyrazol-4-yl)-N^4-((1-(3,3,3-trifluoropropyl)pyrrolidin-2-yl)methyl)pyrimidine-2,4-diamine]
